In PMC8956739, “A synthetic lipopeptide targeting top-priority multidrug-resistant Gram-negative pathogens” (Nature Communications, 2022):
Converted amounts (≈) assume the structure as drawn. “And” between values parts separate entries of the source, which are not always exact repeats. Equal entries are not always repeated. Residues, ends and D or L forms follow the SMILES beside them.

Legend:
P. aeruginosa ATCC 27853 [1] = experiment: Neutropenic mouse bloodstream infection model; format: in vivo; conditions: single IV dose 4 mg/kg; for Log10 CFU/mL blood at 4 h, Mean / Δlog10 CFU/mL blood (mean) / Log10 CFU/mL blood at 4 h, single mouse: 4 h; for Δlog10 CFU/mL blood (mean): treated minus control, mean of replicates; for Δlog10 CFU/mL blood (mean) / Log10 CFU/mL blood at 4 h, single mouse / Delta Log10 CFU/mL blood at 4 h, single mouse: 4 mg/kg; for Delta Log10 CFU/mL blood at 4 h, single mouse: treated mouse minus mean of vehicle mice
How it was run: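 Female Swiss mice made neutropenic with cyclophosphamide (150 mg/kg day −4, 100 mg/kg day −1), infected IV with 50 µL of 4 × 10^8 CFU/mL. Lipopeptide 4 mg/kg (free base) IV at 2 h post-inoculation, n = 3. Efficacy = Δlog10 CFU/mL blood versus saline at 4 h post-dose.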

Swiss mice, kidney = experiment: Nephrotoxicity in mice (kidney histopathology); format: in vivo, mouse; conditions: for Kidney histopathology (SQS Score): 72 mg/kg/d subcutaneously in six divided doses every 2 h, n = 3; for Kidney histopathology, mice with the SQS score: mouse, in vivo
How it was run: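 Female Swiss mice (7-week-old, 22–28 g) received lipopeptides in saline either s.c. at 12 mg/kg ×6 every 2 h (total 72 mg/kg, n = 3) or i.p. at 20 or 25 mg/kg ×6 every 2 h (total 120 mg/kg, n = 6; 150 mg/kg, n = 3). Right kidney collected 20 h after last dose, fixed in 10% buffered formalin (pH 7.4), histology scored blinded.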

A. baumannii ATCC 19606 = format: cell-based, Acinetobacter baumannii; conditions: ATCC 19606
How it was run: (§1)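 Susceptibility: microdilution MIC in CaMHB.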

A. baumannii FADDI-AB030 = format: cell-based, Acinetobacter baumannii; conditions: FADDI-AB030
How it was run: (§2)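 Broth microdilution, CaMHB; MIC read as the antibacterial endpoint against ATCC reference strains and clinical isolates.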

A. baumannii FADDI-AB034 = format: cell-based, Acinetobacter baumannii; conditions: FADDI-AB034
How it was run: as §2

P. aeruginosa ATCC 27853 [2] = format: cell-based, Pseudomonas aeruginosa; conditions: ATCC 27853
How it was run: as §1

[3] = test system: P. aeruginosa FADDI-PA025; format: cell-based, Pseudomonas aeruginosa; conditions: FADDI-PA025
How it was run: as §2

[4] = test system: P. aeruginosa FADDI-PA038; format: cell-based, Pseudomonas aeruginosa; conditions: FADDI-PA038
How it was run: as §2

[5] = test system: K. pneumoniae FADDI-KP032; format: cell-based, Klebsiella pneumoniae; conditions: FADDI-KP032
How it was run: as §2

[6] = test system: K. pneumoniae FADDI-KP065; format: cell-based, Klebsiella pneumoniae; conditions: FADDI-KP065
How it was run: as §2

| SMILES | Log10 CFU/mL blood at 4 h, Mean (P. aeruginosa ATCC 27853 [1]) [Log10 CFU/mL blood] | Δlog10 CFU/mL blood (mean) (P. aeruginosa ATCC 27853 [1]) [log10 CFU/mL blood] | Log10 CFU/mL blood at 4 h, single mouse (P. aeruginosa ATCC 27853 [1]) | Delta Log10 CFU/mL blood at 4 h, single mouse (P. aeruginosa ATCC 27853 [1]) | Kidney histopathology (SQS Score) (Swiss mice, kidney) | Kidney histopathology, mice with the SQS score (Swiss mice, kidney) | MIC A. baumannii ATCC 19606 (A. baumannii ATCC 19606) [µg/mL] | MIC A. baumannii FADDI-AB030 (A. baumannii FADDI-AB030) [µg/mL] | MIC A. baumannii FADDI-AB034 (A. baumannii FADDI-AB034) [µg/mL] | MIC P. aeruginosa ATCC 27853 (P. aeruginosa ATCC 27853 [2]) [µg/mL] | MIC P. aeruginosa FADDI-PA025 [3] [µg/mL] | MIC P. aeruginosa FADDI-PA038 [4] [µg/mL] | MIC K. pneumoniae FADDI-KP032 [5] [µg/mL] | MIC K. pneumoniae FADDI-KP065 [6] [µg/mL] |
| --- | --- | --- | --- | --- | --- | --- | --- | --- | --- | --- | --- | --- | --- | --- |
| CCCCCCCC(=O)N[C@@H](CCN)C(=O)N[C@H](C(=O)N[C@@H](CCN)C(=O)N[C@H]1CCNC(=O)[C@H]([C@@H](C)O)NC(=O)[C@H](CCN)NC(=O)[C@H](CCN)NC(=O)[C@H](CC(C)C)NC(=O)[C@@H]([C@H](C)O)NC(=O)[C@H](CCN)NC1=O)[C@@H](C)O [Lipopeptide F228] (HELM PEPTIDE1{[CCCCCCCC(=O)[*:2]].[Dab].T.[Dab].[Dab].[Dab].[dT].L.[Dab].[Dab].T}$PEPTIDE1,PEPTIDE1,5:R3-11:R2$$$V2.0) | 4.13 | −3.39 | 3.99 Log10 CFU/mL blood and 4.11 Log10 CFU/mL blood and 4.28 Log10 CFU/mL blood | -3.52 Log10 CFU/mL blood and -3.40 Log10 CFU/mL blood and -3.24 Log10 CFU/mL blood | +1 (SQS + 1 = mild damage (overall score, 1 to <15)) | 1/3 | >32 | 16 (≈ 14 µM) | 32 (≈ 28 µM) | 0.25 (≈ 0.219 µM) | 32 (≈ 28 µM) | 32 (≈ 28 µM) | 2 (≈ 1.75 µM) | 16 (≈ 14 µM) |
| CC[C@@H]1NC(=O)[C@@H](CC(C)C)NC(=O)[C@H](CCN)NC(=O)[C@@H](NC(=O)[C@H](CN)NC(=O)[C@@H](NC(=O)[C@H](CCN)NC(=O)c2c(Cl)cccc2Cl)[C@@H](C)O)CCNC(=O)[C@H]([C@@H](C)O)NC(=O)[C@H](CCN)NC(=O)[C@H](CCN)NC1=O [Lipopeptide F360] (HELM PEPTIDE1{[O=C(c1c(Cl)cccc1Cl)[*:2]].[Dab].T.[NC[C@H](N[*:1])C(=O)[*:2]].[Dab].[Dab].[dL].[Abu].[Dab].[Dab].T}$PEPTIDE1,PEPTIDE1,5:R3-11:R2$$$V2.0) | 7.04 | −0.07 | 7.26 Log10 CFU/mL blood and 6.45 Log10 CFU/mL blood and 7.41 Log10 CFU/mL blood | 0.15 Log10 CFU/mL blood and -0.66 Log10 CFU/mL blood and 0.30 Log10 CFU/mL blood | 0 (SQS 0 = no significant change (overall score, <1)) | 3/3 | 16 (≈ 13.8 µM) | 4 (≈ 3.45 µM) | 8 (≈ 6.9 µM) | 0.5 (≈ 0.431 µM) | 4 (≈ 3.45 µM) | 4 (≈ 3.45 µM) | 1 (≈ 0.862 µM) | 0.5 (≈ 0.431 µM) |
| CC[C@@H]1NC(=O)[C@@H](CC(C)C)NC(=O)[C@H](CCN)NC(=O)[C@@H](NC(=O)[C@H](CN)NC(=O)[C@@H](NC(=O)[C@H](CCN)NC(=O)c2ccc(Cl)cc2)[C@@H](C)O)CCNC(=O)[C@H]([C@@H](C)O)NC(=O)[C@H](CCN)NC(=O)[C@H](CCN)NC1=O [Lipopeptide F378] (HELM PEPTIDE1{[O=C(c1ccc(Cl)cc1)[*:2]].[Dab].T.[NC[C@H](N[*:1])C(=O)[*:2]].[Dab].[Dab].[dL].[Abu].[Dab].[Dab].T}$PEPTIDE1,PEPTIDE1,5:R3-11:R2$$$V2.0) | 4.71 | −3.23 | 4.78 Log10 CFU/mL blood and 4.64 Log10 CFU/mL blood | -3.16 Log10 CFU/mL blood and -3.30 Log10 CFU/mL blood | 0 (SQS 0 = no significant change (overall score, <1)) | 3/3 | 1 (≈ 0.888 µM) | 1 (≈ 0.888 µM) | 0.25 (≈ 0.222 µM) | 0.5 (≈ 0.444 µM) | 2 (≈ 1.78 µM) | 1 (≈ 0.888 µM) | 0.25 (≈ 0.222 µM) | 1 (≈ 0.888 µM) |
